Assay results from a melting point compilation (Tetko et al.; mined from patent text by program, amines drawn as free bases though some values may be those of a salt).

Compared with `O=C(CC1(O)CCC1)N[C@H]1CC[C@H](CCN2CCN(c3nccc4c3CCO4)CC2)CC1`, `O=C(NC1CCN(CCC2CCOc3ccccc32)CC1)c1ccncc1` (stereo not drawn) is lower in melting point: 155 °C for the first, 122 to 123 °C for the second.

First: COc1cccc(COCCC(C(=O)O)c2ccccc2)c1 (stereo not drawn)
Second: O=C(O)c1cccc(OCc2ccc3ccccc3n2)c1
The melting point of the first is lower: 112 to 114 °C for the first, 178 to 182 °C for the second.

First: COc1cccc(C(=O)O)c1OCCN1CCC(c2cn(Cc3ccoc3)c3cnccc23)CC1
Second: COc1ccccc1C(=O)Nc1cc(C(=O)NCc2ccccc2)ccn1
The melting point of the first is higher: 303 to 304 °C for the first, 205 to 207 °C for the second.

Compared with `Cc1cc(C)cc(Sc2c(CN3CCOCC3)c(C)[nH]c(=O)c2I)c1`, `Cc1cc(COc2ccc3nc(NC(=O)NCCN4CCOCC4)sc3c2)n(C)n1` is lower in melting point: 230 °C for the first, 160 °C for the second.

First: Nc1nc(-c2cc(Cl)ccc2Cl)nc(N2CCC(O)CC2)n1
Second: Nc1ncc(-c2cc(Cl)cc(Cl)c2Cl)c(N)n1
The melting point of the first is lower: 222 to 224 °C for the first, 246 to 249 °C for the second.

First: O=S(Cc1ccc(Cl)cc1)C1CCC(C=CC=Cc2ccc(C(F)(F)F)cc2)CC1 (stereo not drawn)
Second: N#CCC=Cc1ccc(Cc2ccc(C=CCC#N)cc2)cc1
The melting point of the first is higher: 212 to 214 °C for the first, 128 to 130 °C for the second.

Compared with `Nc1ncc(-c2noc(-c3cnn4c(C(F)(F)F)cc(-c5ccc(Cl)c(Cl)c5)nc34)n2)cn1`, `Nc1ccc(-c2noc(-c3cnn4c(C(F)(F)F)cc(-c5ccc(C(F)(F)F)cc5)nc34)n2)cn1` is lower in melting point: 300 °C for the first, 257 °C for the second.

Compared with `CC1(C)SC2C(N)C(=O)N2C1NC(=O)OCC(Cl)(Cl)Cl` (stereo not drawn), `CCOC(=O)c1c(C)nn(-c2c(Cl)cc(Cl)cc2Cl)c1N` is lower in melting point: 151 to 155 °C for the first, 150 °C for the second.

First: Cc1nc(-c2nc(=O)c3ccccc3s2)cs1
Second: CCOC(=O)c1ncn2c1c(Cl)nc1ccccc12
The melting point of the first is higher: 219 to 220 °C for the first, 128 to 130 °C for the second.

Compared with `O=C(Sc1ccccn1)c1ccncc1`, `S=C=Nc1ccc(-c2nc(-c3ccccn3)no2)cc1` is higher in melting point: 115 °C for the first, 145 to 146 °C for the second.

Compared with `CCN(CC)c1ccc(C(=O)O)nc1`, `CCOC(=O)c1cnn(C)c1NC(=O)Nc1ccccc1` is higher in melting point: 146 to 148 °C for the first, 151 to 153 °C for the second.

First: CCCc1nc(C(C)(C)O)c(C(=O)OCC)n1Cc1ccc(-c2ccccc2C#N)cc1
Second: COc1ccc(CN2C(=O)C(c3cc(C#N)c(O)cc3O)c3ccccc32)cc1 (stereo not drawn)
The melting point of the first is lower: 92 to 93 °C for the first, 162 to 163 °C for the second.

First: COc1ccc(OC)c(C=CC#N)c1
Second: CCOC(=O)C=Cc1cc([N+](=O)[O-])ccc1C
The melting point of the first is higher: 70 to 71 °C for the first, 44 °C for the second.

First: COc1ccc(-n2ccc(=O)c(-c3ccnn3-c3ccccc3)n2)cc1
Second: COc1nc(-c2ccccc2)c2ccsc2n1
The melting point of the first is higher: 179 to 180 °C for the first, 160 to 162 °C for the second.

Compared with `CCCc1c(OCC=CS(=O)(=O)c2ccc(CC(=O)O)c(F)c2)ccc(C(C)=O)c1O`, `CCCCCCCCOc1ccc(C(=O)Oc2ccc(C(=O)O)c(F)c2)cc1` is lower in melting point: 249 to 251 °C for the first, 147 to 148 °C for the second.

Compared with `O=C(NC1CCCCC1)NS(=O)(=O)c1ccc(CCNC(=O)N2CCc3ccccc3C2=O)cc1`, `O=C1CCN(c2ccccc2)N1CN1C(=O)c2ccccc2S1(=O)=O` is higher in melting point: 197 to 198 °C for the first, 209 to 213 °C for the second.

Compared with `CC(C)OC(=O)c1cc(-n2nc3ccc(Cl)cn3c2=O)c(F)cc1Cl`, `CCC(CC)n1cc(C)nc(N2CCc3cc(Cl)cc(Cl)c32)c1=O` is higher in melting point: 120 to 123 °C for the first, 137 to 139 °C for the second.

Compared with `C=CCS(=O)c1c(O)cc(C)oc1=O` (stereo not drawn), `CC(=O)Oc1ccc(C=CC(=O)O)cc1C=O` is higher in melting point: 111 to 112 °C for the first, 205 to 207 °C for the second.

First: CC1(C)N=C(c2ccccc2F)c2cc(C#N)ccc2NC1=O
Second: CNc1ccc(N2C(=O)c3ccccc3C2=O)c(C)c1
The melting point of the first is higher: 206 °C for the first, 159 to 161 °C for the second.

Compared with `CS(=O)(=O)c1ccc(-c2[nH]c(CO)nc2-c2ccc(F)cc2)cc1`, `CS(=O)(=O)c1ccc(-c2c(-c3ccc(F)cc3)c(OCc3ccccc3)nn2Cc2ccccc2)cc1` is higher in melting point: 115 to 117 °C for the first, 174 to 175 °C for the second.

First: CCCCCCCC(=O)NNC(=O)N1Cc2ccccc2Oc2ccc(C(F)(F)F)cc21
Second: CCCCCCNc1nc(-c2ccccc2)c(-c2ccc(=O)n(C(C)C)n2)s1
The melting point of the first is higher: 97 to 100 °C for the first, 90 to 92 °C for the second.

First: Cc1cc(C(N)=O)ncc1C(c1c(F)ccc(F)c1F)S(=O)(=O)c1ccc2ccoc2c1 (stereo not drawn)
Second: Fc1cccc(F)c1-c1nccc(-c2ccc(-c3ccc(C(F)(F)F)cc3)cc2)n1
The melting point of the first is higher: 237 to 240 °C for the first, 141 to 142 °C for the second.

Compared with `CC(=O)OC1CSC(Oc2cccc(-c3cccnc3Cl)c2)C(OC(C)=O)C1OC(C)=O` (stereo not drawn), `COc1cc2c(cc1OC)C(c1cccc(Cl)c1)=NNC(C)C2` (stereo not drawn) is lower in melting point: 146 to 147 °C for the first, 116 to 120 °C for the second.

First: CS(=O)(=O)N1CC(CN2CCCC2)Cc2ccccc21 (stereo not drawn)
Second: O=C1c2ccccc2S(=O)(=O)N1CCCCN1CCN(c2cc(O)cc3c2OCCO3)CC1
The melting point of the first is lower: 72 to 73 °C for the first, 179 to 181 °C for the second.

Compared with `C[Si](CCSCCNC(=O)n1cc(F)c(=O)[nH]c1=O)(c1ccccc1)c1ccccc1`, `CC(C)n1c(CCC2C[C@@H](O)CC(=O)O2)c(-c2ccc(F)cc2)c(-c2ccccc2)c1C(=O)Nc1ccccc1` (stereo partly drawn) is higher in melting point: 119 to 120 °C for the first, 128 to 129 °C for the second.

First: Cc1c(NC(=O)CCCCc2ccc(F)cc2)ccc2cc(CN3CCCC3)cnc12
Second: O=C(O)COc1ccc(CN2C(=O)C3(COc4cc5c(cc43)CCO5)c3ccccc32)cc1 (stereo not drawn)
The melting point of the first is lower: 137 to 138 °C for the first, 265 to 266 °C for the second.

Compared with `CC[C@@H]1C(=O)N(c2ccc(C#N)c(Cl)c2)[C@@H](C)[C@H]1O`, `CC(C)(C)C1=C(C#N)C(c2ccccc2Cl)c2c[nH]nc2N1` (stereo not drawn) is higher in melting point: 109 to 110 °C for the first, 198 °C for the second.

First: Cc1nc(-c2ccc3c(c2)CCCC3)c(C(=O)O)o1
Second: CC(C)C1(C)N=C(c2nc3occc3cc2C(=O)O)NC1=O (stereo not drawn)
The melting point of the first is lower: 183 to 185 °C for the first, 237 to 244 °C for the second.

First: CCCNC1=CC(=O)C(NCCC)=C2C1=Nc1ccccc1S2(=O)=O
Second: CCCc1nc2cnc3ccccc3c2n1CCCCNS(=O)(=O)c1ccccc1
The melting point of the first is higher: 174 to 176 °C for the first, 156 to 157 °C for the second.

First: Cc1cc2cccc(OCCNCc3cccc(C4=CCCC4)c3)c2o1
Second: CC(C)(C)C(=O)N1CC=C(C#Cc2ccc3c(c2)NC(=O)CC(c2cccc(C#N)c2)=N3)CC1
The melting point of the first is lower: 133 °C for the first, 219 °C for the second.

First: Nc1sccc1C(=O)c1cccc(C(F)(F)F)c1
Second: O=C(Nc1c(C(O)(C(F)(F)F)C(F)(F)F)ccc2ccccc12)c1cccc([N+](=O)[O-])c1
The melting point of the first is lower: 143 to 145 °C for the first, 211 to 212 °C for the second.

First: CCCCc1nc2c(N)nc3cc(/C=C/c4ccccc4)ccc3c2n1CC(C)C
Second: CS(=O)(=O)NCCCCn1c(CCCOc2ccccc2)nc2c(N)nc3ccccc3c21
The melting point of the first is higher: 215 to 216 °C for the first, 156 to 157 °C for the second.

First: CCN(CC)CC(=O)Nc1ccc(NC(=O)Nc2ccc(N(CCCl)CCCl)cc2)cc1
Second: CCN(CC)CCNc1ccc2c3c(nn2CCN(CC)CC)-c2c(O)ccc(O)c2C(=O)c13
The melting point of the first is higher: 209 to 211 °C for the first, 152 °C for the second.

First: O=C(NCCCO)C1=C(C(=O)Nc2ccc(Cl)cc2F)CCCC1
Second: CCCCNC(=O)c1cccc(S(=O)(=O)NC(=O)c2ccc(C(=O)NCC(=O)OC)nc2)c1
The melting point of the first is lower: 138 °C for the first, 198 to 200 °C for the second.

First: COc1cc(OC)c2c(=O)[nH]c(-c3ccc(OCCN(C(=O)OC(C)(C)C)C(C)C)c(-c4ccc(S(C)=O)cc4)n3)nc2c1 (stereo not drawn)
Second: COc1cccc(C2C(C(=O)c3ccc(C)cc3)=C(O)C(=O)N2c2ccc(C)nn2)c1 (stereo not drawn)
The melting point of the first is lower: 114 to 116 °C for the first, 265 °C for the second.

Going from `COc1cc(C)c2cc(C(=O)c3ccc(C(=O)O)cc3)ccc2c1C` to `CN(C)C(=S)Oc1ccc(C(=O)c2cccc(C#N)c2)cc1`, the melting point falls from 240 °C to 160 °C.

Compared with `Cc1c(Cl)cccc1S(=O)(=O)Nc1ccc2sccc2c1`, `O=S(=O)(Nc1ccc(Br)cc1)C(F)(F)F` is lower in melting point: 108 to 109 °C for the first, 52 to 54 °C for the second.

Compared with `Nc1nc(O)c2c(n1)NCC(CCc1ccc(C(=O)N[C@@H](CCC(=O)O)C(=O)O)s1)C2` (stereo partly drawn), `CC(C)(C)NC(=O)[C@@H]1[C@H](O)CCN1C(=O)[C@@H](O)[C@H](Cc1ccccc1)NC(=O)[C@H](CC(N)=O)NC(=O)OCc1ccccc1` is lower in melting point: 204 to 230 °C for the first, 109 to 112 °C for the second.

First: FC(F)(F)c1ccccc1N=C1CCc2cc3c(nc21)C(=Nc1ccccc1C(F)(F)F)CC3
Second: O=C(Nc1noc2ccccc12)N1CCN(C(=O)OCc2ccccc2)CC1
The melting point of the first is higher: greater than 350 °C for the first, 137 to 138 °C for the second.

First: CC(C)(C)C(=O)OCc1cc2c(cc1C#Cc1ccccc1)NC(=O)CC(c1cccc(C#N)c1)=N2
Second: Cc1cc(NCC(C)C)c2[nH]nc(-c3ccccc3)c2n1
The melting point of the first is higher: 218 °C for the first, 187 to 190 °C for the second.

First: O=C(O)c1cn(C2CC2)c2nc(N3Cc4cccc(CO)c4C3)c(F)cc2c1=O
Second: CCN1Cc2c(cc3ccc4c(c3c2-c2ccc3c(c2)OCO3)OCO4)C1=O
The melting point of the first is higher: greater than 300 °C for the first, 210 to 212 °C for the second.

First: Cc1cc(N(C)c2ccccc2)c2nn(C)cc2n1
Second: c1ccc2c(c1)C(=NOCCN1CCOCC1)c1ccccc1C1CC21 (stereo not drawn)
The melting point of the first is higher: 252 to 256 °C for the first, 90 to 91 °C for the second.

First: CCOP(=O)(Cc1ccc(NC(=O)[C@H]2Cc3cc4c(cc3C(=O)[C@H](C)S2)OCO4)cc1)OCC
Second: COC(=O)C(Sc1ccc(C)cc1)(C1=NCCCS1)[N+](=O)[O-] (stereo not drawn)
The melting point of the first is higher: 181 to 182 °C for the first, 85 to 89 °C for the second.

Compared with `O=C(COC(=O)c1nocc1Br)NCCO[N+](=O)[O-]`, `CCCCCC(=O)OCc1cc(O)ncn1` is higher in melting point: 98 to 99 °C for the first, 133 to 134 °C for the second.

First: c1ccc(C(c2ccccc2)(c2ccccc2)N2CCCC2)cc1
Second: O=CNc1cccc2c1SC1=NCCN12
The melting point of the first is lower: 126 °C for the first, 217 °C for the second.

First: O=c1c2cccc3ncc(c(=O)n1CCCCNS(=O)(=O)C(F)(F)F)n32
Second: O=[N+]([O-])c1ccc(Oc2c(Cl)cc(C(F)(F)F)cc2Cl)cc1CO
The melting point of the first is higher: 206 to 207 °C for the first, 143 °C for the second.

First: Nc1c(Cl)cc(I)cc1Cl
Second: CC1(c2ccc(O)cc2)CC1(Cl)Cl (stereo not drawn)
The melting point of the first is lower: 100 to 102 °C for the first, 125 to 126 °C for the second.

Compared with `c1cc2c(cn1)ncn2CCCCc1nnnn1C1CCCCC1`, `CSc1nccc(C(=O)C(=O)c2ccc(F)cc2)n1` is lower in melting point: 93 to 95 °C for the first, 74 to 76 °C for the second.

First: CCC(CC)Nc1c([N+](=O)[O-])cc(C)c(C=CN(C)C)c1[N+](=O)[O-]
Second: COCC1(CCCCCCCCCCCCC2(C(=O)O)CC2)CC1
The melting point of the first is higher: 100 to 102 °C for the first, 36.4 to 37.6 °C for the second.
